We go through three compounds from patent publication US9255100B2 (BAYER INTELLECTUAL PROPERTY GMBH, priority 2010, dated 2016).

For series [1], the target named is T1, N-terminally GST-tagged human full length recombinant Mps-1 kinase (Homo sapiens, UniProt P33981).
T1 construct: N-terminally GST-tagged human full length recombinant Mps-1 kinase; purchased Invitrogen, Karslruhe, Germany PV4071
T1 sequence (P33981 1-857): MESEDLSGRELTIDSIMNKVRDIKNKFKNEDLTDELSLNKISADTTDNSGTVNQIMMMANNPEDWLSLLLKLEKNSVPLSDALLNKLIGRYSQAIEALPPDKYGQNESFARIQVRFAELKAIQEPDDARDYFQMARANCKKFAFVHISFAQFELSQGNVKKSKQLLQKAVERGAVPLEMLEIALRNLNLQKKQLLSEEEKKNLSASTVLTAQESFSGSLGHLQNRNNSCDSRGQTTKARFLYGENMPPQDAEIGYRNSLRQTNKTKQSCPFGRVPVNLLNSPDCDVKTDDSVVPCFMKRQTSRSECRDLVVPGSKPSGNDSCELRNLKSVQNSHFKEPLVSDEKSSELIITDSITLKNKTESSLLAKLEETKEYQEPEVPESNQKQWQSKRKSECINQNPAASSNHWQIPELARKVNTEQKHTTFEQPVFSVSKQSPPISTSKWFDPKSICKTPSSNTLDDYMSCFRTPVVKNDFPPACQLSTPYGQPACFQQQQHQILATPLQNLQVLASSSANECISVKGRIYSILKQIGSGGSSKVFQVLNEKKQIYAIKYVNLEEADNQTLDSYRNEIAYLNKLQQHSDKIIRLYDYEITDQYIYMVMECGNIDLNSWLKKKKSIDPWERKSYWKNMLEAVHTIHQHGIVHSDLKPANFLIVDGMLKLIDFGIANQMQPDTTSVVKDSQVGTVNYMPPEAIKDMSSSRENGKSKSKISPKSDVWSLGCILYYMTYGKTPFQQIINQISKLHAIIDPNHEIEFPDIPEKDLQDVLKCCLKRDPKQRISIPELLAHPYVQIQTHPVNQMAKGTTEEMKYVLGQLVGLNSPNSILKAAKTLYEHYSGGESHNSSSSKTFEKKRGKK
Nature of the series: Mps-1 kinase assay (TR-FRET). Type of series: biochemical. The conditions noted are these: Mps1 IC50 [nM], 10 μM ATP, 1 μM peptide substrate, 60 min at 22° C. In outline:
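GST-Mps-1 (full length, N-term tag) ~1 nM final, linear-range adjusted per lot; biotinylated peptide substrate. Detection: Eu-anti-pSer/Thr donor → SA-XLent acceptor TR-FRET, 1 h, 22° C. Inhibition of kinase activity.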

Series [2] relates to Hepatocytes from Han Wistar rats. Nature of the series: In vitro metabolic stability in rat hepatocytes (calculation of hepatic in vivo blood clearance and Fmax). Type of series: in vitro ADME. The conditions noted are these: maximal oral bioavailability calculated from half-life in rat hepatocytes, 1 μM test compound. The method, then:
Investigation of In Vitro Metabolic Stability in Rat Hepatocytes (Including Calculation of Hepatic In Vivo Blood Clearance (CL))
Hepatocytes from Han Wistar rats were isolated via a 2-step perfusion method. After perfusion, the liver was carefully removed from the rat: the liver capsule was opened and the hepatocytes were gently shaken out into a Petri dish with ice-cold WME. The resulting cell suspension was filtered through sterile gaze in 50 ml falcon tubes and centrifuged at 50×g for 3 min at room temperature. The cell pellet was resuspended in 30 ml WME and centrifuged through a Percoll® gradient for 2 times at 100×g. The hepatocytes were washed again with Williams' medium E (WME) and resuspended in medium containing 5% FCS. Cell viability was determined by trypan blue exclusion.
For the metabolic stability assay liver cells were distributed in WME containing 5% FCS to glass vials at a density of 1.0×10^6 vital cells/ml. The test compound was added to a final concentration of 1 μM. During incubation, the hepatocyte suspensions were continuously shaken and aliquots were taken at 2, 8, 16, 30, 45 and 90 min, to which equal volumes of cold methanol were immediately added. Samples were frozen at −20° C. over night, after subsequently centrifuged for 15 minutes at 3000 rpm and the supernatant was analyzed with an Agilent 1200 HPLC-system with LCMS/MS detection.
The half-life of a test compound was determined from the concentration-time plot. From the half-life the intrinsic clearances were calculated. Together with the additional parameters liver blood flow, amount of liver cells in vivo and in vitro. The hepatic in vivo blood clearance (CL) and the maximal oral bioavailability (Fmax) was calculated. The following parameter values were used: Liver blood flow—4.2 L/h/kg rat; specific liver weight—32 g/kg rat body weight; liver cells in vivo—1.1×10^8 cells/g liver, liver cells in vitro—0.5×10^6/ml.

What is called IC50 is the concentration at which inhibition is half-maximal. For the compound `Cc1cc(-c2cnc3c(NCCS(C)(=O)=O)cc(Oc4cccc(F)c4F)nn23)ccc1C(=O)NC1CC1` [Example 516, N-cyclopropyl-4-[6-(2,3-difluorophenoxy)-8-{[2-(methylsulfonyl)ethyl]amino}imidazo[1,2-b]pyridazin-3-yl]-2-methylbenzamide], the IC50 in series [1] was found to be 0.3 nM. Also, in series [2], the “Fmax [%]” value is reported as 69%.
As for `Cc1cc(-c2cnc3c(NCC4CCN(C)CC4)cc(Oc4cccc(F)c4F)nn23)ccc1C(=O)NC1CC1` [Example 526, N-cyclopropyl-4-[6-(2,3-difluorophenoxy)-8-{[(1-methylpiperidin-4-yl)-methyl]amino}imidazo[1,2-b]pyridazin-3-yl]-2-methylbenzamide], the IC50 in series [1] was determined as 0.1 nM. Besides, in series [2], the “Fmax [%]” value is 50%.
The matching figures for `Cc1cc(-c2cnc3c(NCCN4CCOCC4)cc(Oc4cccc(F)c4F)nn23)ccc1C(=O)NC1CC1` [Example 536, N-cyclopropyl-4-[6-(2,3-difluorophenoxy)-8-{[2-(morpholin-4-yl)ethyl]amino}imidazo[1,2-b]pyridazin-3-yl]-2-methylbenzamide]: 0.3 nM and 37%.
